Test results from US9119769B2, “Method for transforming pharmaceutical crystal forms” (The Curators of the University of Missouri, priority 2012, dated 2015).
Each block holds one compound with its values, some of them ahead of it.

Tests used:
[1] = Gas-induced (pressurized CO2) phase transformation of crystal forms, followed by XRPD; type: physicochemical
Source text: The invention teaches that simple pressurization of polymorphic forms of an organic solid, such as a pharmaceutical agent, can effect phase transitions among the forms with ease. More specifically, the inventive method comprises the step of subjecting an organic solid to a pressurized gas under low to moderate pressure at room temperature to a mildly elevated temperature for a period of time. The pressurized gas may be CO2, N2O, and CH4, and the pressure may start at 1 atm, whereas under slightly elevated pressure, the reaction temperature may be lowered, while the reaction time may be shortened.
Refer to FIG. 3, which includes schematic illustrations of the phase transformations between different forms of Clarithromycin 1. […] As expected, desolvated form I can be transformed to form II with greater ease under analogous conditions. […] Different gases including H2, He, CH4, N2, O2, air, and N2O have been studied, among which N2O has similar transformation effect as CO2.
Refer to FIG. 5, which compares the transformations under different gas pressures (350 psi vs. 100 psi) at different durations.
The invention has also studied Lansoprazole 2 transformations under CO2 but at higher pressure conditions.

[2] = 1:1 ethanol hydrate; cited from earlier work
[3] = cited from earlier work

time of exposure for complete transformation directly to form II ([1]; 23.8 atm (350 psi) CO2, room temperature): 4 h
Structure (SMILES): CC[C@H]1OC(=O)[C@H](C)[C@@H](O[C@H]2C[C@@](C)(OC)[C@@H](O)[C@H](C)O2)[C@H](C)[C@@H](O[C@@H]2O[C@H](C)C[C@H](N(C)C)[C@H]2O)[C@](C)(OC)C[C@@H](C)C(=O)[C@H](C)[C@@H](O)[C@]1(C)O [Clarithromycin form 0, 6-O-methylerythro-mycin A]

time for transformation to form II ([1]; pressurization under 350 psi CO2): within just several minutes
Structure (SMILES): CC[C@H]1OC(=O)[C@H](C)[C@@H](O[C@H]2C[C@@](C)(OC)[C@@H](O)[C@H](C)O2)[C@H](C)[C@@H](O[C@@H]2O[C@H](C)C[C@H](N(C)C)[C@H]2O)[C@](C)(OC)C[C@@H](C)C(=O)[C@H](C)[C@@H](O)[C@]1(C)O [Clarithromycin form I, 6-O-methylerythro-mycin A]

Structure (SMILES): Cc1c(OCC(F)(F)F)ccnc1C[S+]([O-])c1nc2ccccc2[nH]1 (stereo not drawn) [Lansoprazole ethanol hydrate, Lansoprazole]
transformation of ethanol hydrate to solvent-free form ([1]; 500 psi CO2, room temperature): transformation to the more thermodynamically stable solvent-free form begins
chemical stability of the solvate [2]: prone to decomposition

Structure (SMILES): CO[C@@H]1[C@@H](OC(N)=O)[C@@H](O)[C@H](Oc2ccc3c(O)c(NC(=O)c4ccc(O)c(CC=C(C)C)c4)c(=O)oc3c2C)OC1(C)C [novobiocin amorphous phase, novobiocin]
absorption upon oral administration [3]: readily absorbed

Structure (SMILES): CO[C@@H]1[C@@H](OC(N)=O)[C@@H](O)[C@H](Oc2ccc3c(O)c(NC(=O)c4ccc(O)c(CC=C(C)C)c4)c(=O)oc3c2C)OC1(C)C [novobiocin crystalline form, novobiocin]
absorption upon oral administration [3]: poorly absorbed
